# According to patent US12496348B2, “Small molecule target bromo/acetyl proteins and uses thereof” (DANA-FARBER CANCER INSTITUTE, INC., priority 2019, dated 2025):
# Test system: Kelly Neuroblastoma cells
# Assay: ATPlite Luminescence viability assay, Kelly neuroblastoma cells, 72 h
# Type: cell-based
# Conditions: Kelly Neuroblastoma cells, ATPlite, class symbols, read-out: IC50 of inventive bispecific compounds
# Method: Kelly Neuroblastoma cells were seeded at 1,000 cells per well in 384 well, white plates and were treated in a dose-dependent manner for 72 h.
row,Structure (SMILES),IC50
1,"Cc1noc(C)c1-c1ccn2c(NC3CCCCC3)c(CCc3ccc(NC(=O)CCCCCCCCCCCNC(=O)COc4cccc5c4C(=O)N(C4CCC(=O)NC4=O)C5=O)cc3)nc2c1 (stereo not drawn) [Compound 10, N-(4-(2-(3-(cyclohexylamino)-7-(3,5-dimethylisoxazol-4-yl)imidazo[1,2-a]pyridin-2-yl)ethyl)phenyl)-12-(2-((2-(2,6-dioxopiperidin-3-yl)-1,3-dioxoisoindolin-4-yl)oxy)acetamido)dodecanamide]",> 10 µM
2,"Cc1noc(C)c1-c1ccn2c(NC3CCCCC3)c(CCc3ccc(NC(=O)CCCCCCCNc4cccc5c4C(=O)N(C4CCC(=O)NC4=O)C5=O)cc3)nc2c1 (stereo not drawn) [Compound 13, N-(4-(2-(3-(cyclohexylamino)-7-(3,5-dimethylisoxazol-4-yl)imidazo[1,2-a]pyridin-2-yl)ethyl)phenyl)-8-((2-(2,6-dioxopiperidin-3-yl)-1,3-dioxoisoindolin-4-yl)amino)octanamide]",> 10 µM
3,"Cc1noc(C)c1-c1ccn2c(NC3CCCCC3)c(CCc3ccc(NC(=O)CCCCCNc4ccc5c(c4)C(=O)N(C4CCC(=O)NC4=O)C5=O)cc3)nc2c1 (stereo not drawn) [Compound 14, N-(4-(2-(3-(cyclohexylamino)-7-(3,5-dimethylisoxazol-4-yl)imidazo[1,2-a]pyridin-2-yl)ethyl)phenyl)-6-((2-(2,6-dioxopiperidin-3-yl)-1,3-dioxoisoindolin-5-yl)amino)hexanamide]",1 to 10 µM
4,"Cc1ncsc1-c1ccc(CNC(=O)[C@H]2C[C@H](O)CN2C(=O)[C@H](NC(=O)COCCOCCOCCNC(=O)CCC(=O)Nc2ccc(CCc3nc4cc(-c5c(C)noc5C)ccn4c3NC3CCCCC3)cc2)C(C)(C)C)cc1 [Compound 15, N1-(4-(2-(3-(cyclohexylamino)-7-(3,5-dimethylisoxazol-4-yl)imidazo[1,2-a]pyridin-2-yl)ethyl)phenyl)-N4-((R)-13-((2R,4S)-4-hydroxy-2-((4-(4-methylthiazol-5-yl)benzyl)carbamoyl)pyrrolidine-1-carbonyl)-14,14-dimethyl-11-oxo-3,6,9-trioxa-12-azapentadecyl)succinamide]",> 10 µM
5,"Cc1noc(C)c1-c1ccn2c(NC3CCCCC3)c(CCc3ccc(NC(=O)c4ccc(CNc5cccc6c5C(=O)N(C5CCC(=O)NC5=O)C6=O)cc4)cc3)nc2c1 (stereo not drawn) [Compound 18, N-(4-(2-(3-(cyclohexylamino)-7-(3,5-dimethylisoxazol-4-yl)imidazo[1,2-a]pyridin-2-yl)ethyl)phenyl)-4-(((2-(2,6-dioxopiperidin-3-yl)-1,3-dioxoisoindolin-4-yl)amino)methyl)benzamide]",> 10 µM
6,"Cc1noc(C)c1-c1ccc2c(c1)nc(CCc1ccc(NC(=O)CCOCCOCCOCCNc3cccc4c3C(=O)N(C3CCC(=O)NC3=O)C4=O)cc1)n2CCN1CCOCC1 (stereo not drawn) [Compound 22, N-(4-(2-(5-(3,5-dimethylisoxazol-4-yl)-1-(2-morpholinoethyl)-1H-benzo[d]imidazol-2-yl)ethyl)phenyl)-3-(2-(2-(2-((2-(2,6-dioxopiperidin-3-yl)-1,3-dioxoisoindolin-4-yl)amino)ethoxy)ethoxy)ethoxy)propanamide]",> 10 µM
7,"Cc1noc(C)c1-c1ccc2c(c1)nc(CCc1ccc(NC(=O)CCCCCCCCCCCNC(=O)COc3cccc4c3C(=O)N(C3CCC(=O)NC3=O)C4=O)cc1)n2CCN1CCOCC1 (stereo not drawn) [Compound 24, N-(4-(2-(5-(3,5-dimethylisoxazol-4-yl)-1-(2-morpholinoethyl)-1H-benzo[d]imidazol-2-yl)ethyl)phenyl)-12-(2-((2-(2,6-dioxopiperidin-3-yl)-1,3-dioxoisoindolin-4-yl)oxy)acetamido)dodecanamide]",> 10 µM
8,"Cc1noc(C)c1-c1ccc2c(c1)nc(CCc1ccc(NC(=O)CCCCCNc3cccc4c3C(=O)N(C3CCC(=O)NC3=O)C4=O)cc1)n2CC(C)N1CCOCC1 (stereo not drawn) [Compound 25, N-(4-(2-(5-(3,5-dimethylisoxazol-4-yl)-1-(2-morpholinopropyl)-1H-benzo[d]imidazol-2-yl)ethyl)phenyl)-6-((2-(2,6-dioxopiperidin-3-yl)-1,3-dioxoisoindolin-4-yl)amino)hexanamide]",> 10 µM
9,"Cc1noc(C)c1-c1ccc2c(c1)nc(CCc1ccc(NC(=O)CCCCCCCNc3cccc4c3C(=O)N(C3CCC(=O)NC3=O)C4=O)cc1)n2CC(C)N1CCOCC1 (stereo not drawn) [Compound 26, N-(4-(2-(5-(3,5-dimethylisoxazol-4-yl)-1-(2-morpholinopropyl)-1H-benzo[d]imidazol-2-yl)ethyl)phenyl)-8-((2-(2,6-dioxopiperidin-3-yl)-1,3-dioxoisoindolin-4-yl)amino)octanamide]",> 10 µM

# Further lines, results first:
row,IC50,Structure (SMILES)
1,> 10 µM,"Cc1noc(C)c1-c1ccc2nc(-c3ccc(N4CCN(C(=O)CCOCCOCCOCCNC(=O)COc5cccc6c5C(=O)N(C5CCC(=O)NC5=O)C6=O)CC4)cc3)c(NC3CCCCC3)n2c1 (stereo not drawn) [Compound 4, N-(2-(2-(2-(3-(4-(4-(3-(cyclohexylamino)-6-(3,5-dimethylisoxazol-4-yl)imidazo[1,2-a]pyridin-2-yl)phenyl)piperazin-1-yl)-3-oxopropoxy)ethoxy)ethoxy)ethyl)-2-((2-(2,6-dioxopiperidin-3-yl)-1,3-dioxoisoindolin-4-yl)oxy)acetamide]"
2,> 10 µM,"Cc1noc(C)c1-c1ccn2c(NCc3ccccc3)c(-c3ccc(N4CCN(C(=O)CCOCCOCCOCCOCCOCCOCCNc5cccc6c5C(=O)N(C5CCC(=O)NC5=O)C6=O)CC4)cc3)nc2c1 (stereo not drawn) [Compound 5, 4-((21-(4-(4-(3-(benzylamino)-7-(3,5-dimethylisoxazol-4-yl)imidazo[1,2-a]pyridin-2-yl)phenyl)piperazin-1-yl)-21-oxo-3,6,9,12,15,18-hexaoxahenicosyl)amino)-2-(2,6-dioxopiperidin-3-yl)isoindoline-1,3-dione]"
3,1 to 10 µM,"Cc1noc(C)c1-c1ccn2c(NCc3ccccc3)c(-c3ccc(N4CCN(C(=O)CCOCCOCCOCCNc5cccc6c5C(=O)N(C5CCC(=O)NC5=O)C6=O)CC4)cc3)nc2c1 (stereo not drawn) [Compound 6, 4-((2-(2-(2-(3-(4-(4-(3-(benzylamino)-7-(3,5-dimethylisoxazol-4-yl)imidazopyridin-2-yl)phenyl)piperazin-1-yl)-3-oxopropoxy)ethoxy)ethoxy)ethyl)amino)-2-(2,6-dioxopiperidin-3-yl)isoindoline-1,3-dione]"
4,> 10 µM,"Cc1noc(C)c1-c1ccn2c(NC3CCCCC3)c(CCc3ccc(NC(=O)CCCCCCCCCCCNc4cccc5c4C(=O)N(C4CCC(=O)NC4=O)C5=O)cc3)nc2c1 (stereo not drawn) [Compound 9, N-(4-(2-(3-(cyclohexylamino)-7-(3,5-dimethylisoxazol-4-yl)imidazo[1,2-a]pyridin-2-yl)ethyl)phenyl)-12-((2-(2,6-dioxopiperidin-3-yl)-1,3-dioxoisoindolin-4-yl)amino)dodecanamide]"
5,1 to 10 µM,"Cc1noc(C)c1-c1ccn2c(NC3CCCCC3)c(CCc3ccc(NC(=O)CCOCCOCCOCCOCCOCCOCCNc4cccc5c4C(=O)N(C4CCC(=O)NC4=O)C5=O)cc3)nc2c1 (stereo not drawn) [Compound 16, N-(4-(2-(3-(cyclohexylamino)-7-(3,5-dimethylisoxazol-4-yl)imidazo[1,2-a]pyridin-2-yl)ethyl)phenyl)-1-((2-(2,6-dioxopiperidin-3-yl)-1,3-dioxoisoindolin-4-yl)amino)-3,6,9,12,15,18-hexaoxahenicosan-21-amide]"
6,1 to 10 µM,"Cc1noc(C)c1-c1ccn2c(NC3CCCCC3)c(CCc3ccc(NC(=O)C4CCC(Nc5cccc6c5C(=O)N(C5CCC(=O)NC5=O)C6=O)CC4)cc3)nc2c1 (stereo not drawn) [Compound 17, N-(4-(2-(3-(cyclohexylamino)-7-(3,5-dimethylisoxazol-4-yl)imidazo[1,2-a]pyridin-2-yl)ethyl)phenyl)-4-((2-(2,6-dioxopiperidin-3-yl)-1,3-dioxoisoindolin-4-yl)amino)cyclohexane-1-carboxamide]"
7,> 10 µM,"COc1ccc(CCc2nc3cc(-c4c(C)noc4C)ccc3n2C[C@H](C)N2CCN(C(=O)CCOCCOCCOCCNc3ccc4c(c3)C(=O)N(C3CCC(=O)NC3=O)C4=O)CC2)cc1Cl (stereo partly drawn) [Compound 19, 5-((2-(2-(2-(3-(4-((S)-1-(2-(3-chloro-4-methoxyphenethyl)-5-(3,5-dimethylisoxazol-4-yl)-1H-benzo[d]imidazol-1-yl)propan-2-yl)piperazin-1-yl)-3-oxopropoxy)ethoxy)ethoxy)ethyl)amino)-2-(2,6-dioxopiperidin-3-yl)isoindoline-1,3-dione]"
8,> 10 µM,"COc1ccc(CCc2nc3cc(-c4c(C)noc4C)ccc3n2C[C@H](C)N2CCN(C(=O)CCCCCCCCCNc3ccc4c(c3)C(=O)N(C3CCC(=O)NC3=O)C4=O)CC2)cc1Cl (stereo partly drawn) [Compound 20, 5-((10-(4-((S)-1-(2-(3-chloro-4-methoxyphenethyl)-5-(3,5-dimethylisoxazol-4-yl)-1H-benzo[d]imidazol-1-yl)propan-2-yl)piperazin-1-yl)-10-oxodecyl)amino)-2-(2,6-dioxopiperidin-3-yl)isoindoline-1,3-dione]"
9,> 10 µM,"COc1ccc(CCc2nc3cc(-c4c(C)noc4C)ccc3n2C[C@H](C)N2CCN(C(=O)CCCCCNc3ccc4c(c3)C(=O)N(C3CCC(=O)NC3=O)C4=O)CC2)cc1Cl (stereo partly drawn) [Compound 21, 5-((6-(4-((S)-1-(2-(3-chloro-4-methoxyphenethyl)-5-(3,5-dimethylisoxazol-4-yl)-1H-benzo[d]imidazol-1-yl)propan-2-yl)piperazin-1-yl)-6-oxohexyl)amino)-2-(2,6-dioxopiperidin-3-yl)isoindoline-1,3-dione]"
10,> 10 µM,"Cc1noc(C)c1-c1ccc2c(c1)nc(CCc1ccc(NC(=O)CCCCCCCCCCCNc3cccc4c3C(=O)N(C3CCC(=O)NC3=O)C4=O)cc1)n2CCN1CCOCC1 (stereo not drawn) [Compound 23, N-(4-(2-(5-(3,5-dimethylisoxazol-4-yl)-1-(2-morpholinoethyl)-1H-benzo[d]imidazol-2-yl)ethyl)phenyl)-12-((2-(2,6-dioxopiperidin-3-yl)-1,3-dioxoisoindolin-4-yl)amino)dodecanamide]"
11,> 10 µM,"Cc1noc(C)c1-c1ccc2c(c1)nc(CCc1ccc(NC(=O)CCOCCOCCOCCNc3cccc4c3C(=O)N(C3CCC(=O)NC3=O)C4=O)cc1)n2CC(C)N1CCOCC1 (stereo not drawn) [Compound 27, N-(4-(2-(5-(3,5-dimethylisoxazol-4-yl)-1-(2-morpholinopropyl)-1H-benzo[d]imidazol-2-yl)ethyl)phenyl)-3-(2-(2-(2-((2-(2,6-dioxopiperidin-3-yl)-1,3-dioxoisoindolin-4-yl)amino)ethoxy)ethoxy)ethoxy)propanamide]"

# Same assay, conditions: Kelly Neuroblastoma cells, ATPlite, read-out: IC50
row,IC50,Structure (SMILES)
1,1.27 µM,"Cc1noc(C)c1-c1ccn2c(NCc3ccccc3)c(-c3ccc(N4CCN(C(=O)CCOCCOCCOCCNc5cccc6c5C(=O)N(C5CCC(=O)NC5=O)C6=O)CC4)cc3)nc2c1 (stereo not drawn) [Compound 6, 4-((2-(2-(2-(3-(4-(4-(3-(benzylamino)-7-(3,5-dimethylisoxazol-4-yl)imidazopyridin-2-yl)phenyl)piperazin-1-yl)-3-oxopropoxy)ethoxy)ethoxy)ethyl)amino)-2-(2,6-dioxopiperidin-3-yl)isoindoline-1,3-dione]"
